Test results as given in ChEMBL document CHEMBL5154921, “Discovery and Characterization of the First Nonpeptide Antagonists for the Relaxin-3/RXFP3 System” (J Med Chem, 2022).
Activity calls are given as the source filed them. No cut-off for these calls is given here.

Assays:
Type in all cases: functional, cell-based
Relaxin-3 receptor 1 [1] = target: T1, Relaxin-3 receptor 1 (Homo sapiens, UniProt Q9NSD7); assay: Antagonist activity at human RXFP3 expressed in CHO-K1 cells assessed as forskolin-induced cAMP accumulation measured after 30 mins in presence of relaxin-3 by TR-FRET assay
T1 sequence (Q9NSD7 whole entry): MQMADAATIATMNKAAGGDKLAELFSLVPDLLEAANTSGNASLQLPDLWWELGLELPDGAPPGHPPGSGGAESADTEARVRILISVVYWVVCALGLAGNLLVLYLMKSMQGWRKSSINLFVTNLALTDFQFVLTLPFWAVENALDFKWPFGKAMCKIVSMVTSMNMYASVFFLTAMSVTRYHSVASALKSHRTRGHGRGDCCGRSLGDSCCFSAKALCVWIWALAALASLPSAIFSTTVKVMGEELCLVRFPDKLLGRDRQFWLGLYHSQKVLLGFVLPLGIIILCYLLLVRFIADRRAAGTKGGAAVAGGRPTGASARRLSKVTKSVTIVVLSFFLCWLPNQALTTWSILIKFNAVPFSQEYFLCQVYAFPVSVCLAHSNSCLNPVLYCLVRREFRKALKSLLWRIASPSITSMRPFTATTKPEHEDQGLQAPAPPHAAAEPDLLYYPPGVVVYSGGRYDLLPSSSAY

Relaxin-3 receptor 1 [2] = target: T1, Relaxin-3 receptor 1; assay: Antagonist activity at human RXFP3 expressed in CHO-K1 cells assessed as [35S]GTPgammaS binding incubated for 1 hr by [35S]GTP-gammaS binding assay
[3] = target: Relaxin receptor 1 (Homo sapiens) (UniProt Q9HBX9); assay: Antagonist activity at human RXFP1 receptor expressed in CHO-K1 cells assessed as cAMP production at 10 to 30 uM in presence of relaxin-3 incubated for 30 mins by TR-FRET assay; conditions: filed as antagonist, dose 10-30 µM
Relaxin receptor 1 (Homo sapiens), sequence (Q9HBX9 whole entry): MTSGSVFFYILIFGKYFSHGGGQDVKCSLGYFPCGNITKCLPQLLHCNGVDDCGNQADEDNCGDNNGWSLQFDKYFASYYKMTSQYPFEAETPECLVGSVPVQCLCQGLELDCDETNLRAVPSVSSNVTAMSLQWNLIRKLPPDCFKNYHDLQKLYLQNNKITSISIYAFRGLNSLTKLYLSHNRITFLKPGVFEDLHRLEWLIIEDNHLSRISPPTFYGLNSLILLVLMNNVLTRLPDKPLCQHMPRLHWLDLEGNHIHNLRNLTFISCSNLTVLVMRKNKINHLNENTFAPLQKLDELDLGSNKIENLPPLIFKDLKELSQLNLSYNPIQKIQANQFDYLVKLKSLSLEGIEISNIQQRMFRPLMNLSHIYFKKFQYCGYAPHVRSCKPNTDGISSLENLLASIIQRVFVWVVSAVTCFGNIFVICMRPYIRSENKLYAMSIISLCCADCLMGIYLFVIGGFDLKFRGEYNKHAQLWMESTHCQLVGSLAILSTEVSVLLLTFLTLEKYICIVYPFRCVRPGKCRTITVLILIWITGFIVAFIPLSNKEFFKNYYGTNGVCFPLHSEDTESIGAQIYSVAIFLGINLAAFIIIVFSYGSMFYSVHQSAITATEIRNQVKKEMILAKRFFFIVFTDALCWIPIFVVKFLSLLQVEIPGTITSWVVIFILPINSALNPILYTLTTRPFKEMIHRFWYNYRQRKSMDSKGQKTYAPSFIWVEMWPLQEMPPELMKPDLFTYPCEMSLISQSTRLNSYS

SMILES	IC50 (Relaxin-3 receptor 1 [1]) [µM]	IC50 (Relaxin-3 receptor 1 [2]) [µM]	Activity [3]
Cc1ccc(-c2noc(-c3ccc(NC(=O)C4CC(=O)N(Cc5ccccc5F)C4)cc3)n2)cc1 (stereo not given)	> 10		
Cc1ccc(-c2noc(-c3ccc(NC(=O)C4CC(=O)N(Cc5cccnc5)C4)cc3)n2)cc1 (stereo not given)	2.12		
O=C(Nc1ccc(-c2nc(-c3ccc(Cl)cc3)no2)cc1)C1CC(=O)N(Cc2cccnc2)C1 (stereo not given)		3.04	Active
Cc1ccc(-c2noc(-c3ccc(NC(=O)C4CC(=O)N(Cc5ccccn5)C4)cc3)n2)cc1 (stereo not given)	> 10		
